From US20060240474A1, “Peptides able to switch between two structural states and their use” (UNIVERSITY OF SUSSEX, priority 2002, published 2006)
Where a SMILES comes first, the peptide text is derived from it. Bridges are numbered along the chain shown (N, C = ends). Where no end group is shown, it is not given here. The star is where a group is joined. Cam = NC(=O)C*

How the values were obtained:
[1] = Sedimentation equilibrium analytical ultracentrifugation (monomer-dimer equilibrium); format: physicochemical; settings: monomer-dimer fit, 5° C., pH 7; read-out: KD (95% confidence limits)
Description: Sedimentation equilibrium experiments were conducted at 5° C. in a Beckman-Optima XL-I analytical ultracentrifuge fitted with an An-60 Ti rotor. A […] peptide solution at […] in 25 mM K phosphate buffer pH 7 containing 0.1 M KCl was equilibrated for 48 h at speeds of 40 000, 47 500/50 000 and 55 000/60 000 rpm. […] The molecular weights (Table 2) and partial specific volumes (range 0.7417 to 0.7461) of the peptides were calculated from their amino-acid sequences, and the viscosity of the buffer at 5° C. was taken to be […].

[2] = Thermal unfolding followed by CD spectroscopy; format: physicochemical; settings: comparator named in the value
Description: (§1) Circular dichroism spectroscopy. CD measurements were made using a JASCO J-715 spectropolarimeter fitted with a Peltier temperature controller. Peptide solutions were prepared in 25 mM potassium phosphate buffer at pH 7 and were examined in 1 mm or 1 cm quartz cuvettes (with stirring). Spectra were recorded at 5° C. using 1 nm intervals, a 1 nm bandwidth and 4 sec response time. Thermal unfolding curves were recorded through 1° C. min^−1 ramps using a 2 nm bandwidth, averaging the signal for 16 s every 1° C. intervals. After baseline correction, ellipticities in mdeg were converted to molar ellipticities (deg cm^2 dmol-res-^−1) by normalising for the concentration of peptide bonds.

[3] = Conformational switching of oxidised CSP-3 to the reduced form, CD time scan at 222 nm; format: physicochemical; settings: 20-fold excess (2 mM)
Description: The molar ellipticity at 222 nm was recorded. To induce the switch of the peptide from its oxidised to its reduced form a reducing agent for the disulphide bond was added. Two reducing agents were used for comparison, DTE and β-mercaptoethanol, in 20-fold excess (2 mM). […] The time taken to initiate the scan after addition of reducing agent was noted. […] A wavelength scan (190-260 nm) was run for each sample once the switch experiment was complete to record the spectrum of the reduced peptide. The data obtained from the time course reaction was analysed using the data analysis program Origin (v. 11) (see FIG. 5) A single exponential curve for a first order reaction has been fitted to the data from a switch experiment, using the data analysis program Origin. The equation for the curve is: y=Ae^−kt+B where A=amplitude of signal • B=[…] • k=rate constant • t=time […]

[4] = Circular dichroism spectroscopy (helicity); format: physicochemical; settings: pH 7; comparator named in the value
Description: as §1

[5] = target: the molecule itself; test: sedimentation equilibrium (AUC), self-association
Description: (§2) Sedimentation equilibrium experiments were conducted at 5° C. in a Beckman-Optima XL-I analytical ultracentrifuge fitted with an An-60 Ti rotor. A […] peptide solution at […] in 25 mM K phosphate buffer pH 7 containing 0.1 M KCl was equilibrated for 48 h at speeds of 40 000, 47 500/50 000 and 55 000/60 000 rpm. Data were fitted simultaneously assuming either a single ideal species or a monomer-dimer equilibrium and fixed monomer molecular weight, using routines in the Beckman-Optima XL-A/XLI-I data analysis software (v4.0). The molecular weights (Table 2) and partial specific volumes (range 0.7417 to 0.7461) of the peptides were calculated from their amino-acid sequences, and the viscosity of the buffer at 5° C. was taken to be […].

[6] = target: the molecule itself; test: sedimentation equilibrium AUC, poor monomer-dimer fit, 5 C (homodimerisation)
Description: as §2
However, the reduced form of the peptide, CSP-2r, was only partially folded as judged from CD spectra (consistent with only ˜20% helix) (see FIG. 3A). […] (see FIG. 3B). […] The data fitted best assuming a single ideal species, and returned a molecular weight close to that expected for monomer (see Table 2). Fits to monomer-dimer were poor and gave weak dissociation constants in the 10-100 mM range.

## CGGEIRALKYEIARLKQ----KKRALEQKIAALEGGC [CSP-1r]
[1]
  Kd: 0.033 mM

## CC[C@H](C)[C@@H]1NC(=O)[C@H](CCCCN)NC(=O)[C@H](CCC(N)=O)NC(=O)[C@H](CCC(=O)O)NC(=O)[C@H](CC(C)C)NC(=O)[C@H](C)NC(=O)[C@H](CCCNC(=N)N)NC(=O)[C@H]([C@@H](C)CC)NC(=O)[C@H](CCCCN)NC(=O)[C@H](C)NC(=O)[C@H](CCC(N)=O)NC(=O)[C@H](CCCCN)NC(=O)[C@H](C)NC(=O)[C@H](CCC(N)=O)NC(=O)[C@H](CCCCN)NC(=O)[C@H](CC(C)C)NC(=O)[C@H](CCCNC(=N)N)NC(=O)[C@H](C)NC(=O)[C@H]([C@@H](C)CC)NC(=O)[C@H](CCC(=O)O)NC(=O)[C@H](Cc2ccc(O)cc2)NC(=O)[C@H](CCCCN)NC(=O)[C@H](CC(C)C)NC(=O)[C@H](C)NC(=O)[C@H](CCCNC(=N)N)NC(=O)[C@H]([C@@H](C)CC)NC(=O)[C@H](CCC(=O)O)NC(=O)CNC(=O)CNC(=O)[C@@H](N)CSSC[C@@H](C(=O)O)NC(=O)CNC(=O)CNC(=O)[C@H](CCC(=O)O)NC(=O)[C@H](CC(C)C)NC(=O)[C@H](C)NC(=O)[C@H](C)NC1=O [CSP-3o] (H-CGGEIRALKYEIARLKQAKQAKIRALEQKIAALEGGC-OH; disulfide 1-37; N-terminus and C-terminus assumed)
[2]
  thermal stability in words: marginally improved helicity and thermal stability over CSP-2o
[3]; with DTE
  time taken for reduction to complete: 75 min
[3]; with βME
  time taken for reduction to complete: 180 min
[4]
  helicity compared with other designs (CD signal at 222 nm): marginally improved helicity and thermal stability over CSP-2o

B1: CSP-2o (intra-molecularly oxidised) (peptide)
peptide: CGGEIRALKYEIARLKQGGGGKKRALEQKIAALEGGC
modifications: disulfide 1-37
notes: also called design iteration 2, oxidised; CSP-4o (Maya's nomenclature)
[5]
  binding result: no binding

B2: CSP-2r (reduced and alkylated) (peptide)
peptide: C(Cam)GGEIRALKYEIARLKQGGGGKKRALEQKIAALEGGC(Cam)
notes: CSP-1 with a tetraglycine insert; also called design iteration 2, reduced & alkylated; CSP-4a (Maya's nomenclature)
[6]
  Kd: 10 to 100 mM
